The values below come from ChEMBL document CHEMBL5465560, “Selectivity Literature for EUbOPEN Chemogenomic Library” (2024).

The target of data set [1] is Mast/stem cell growth factor receptor Kit (Homo sapiens, UniProt P10721). Put plainly: Selectivity interaction (KinomeScan (DiscoverX)) EUB0000695a KIT. To be noted: at 100 nM.
For data set [2], the target named is Amine oxidase [flavin-containing] A (Homo sapiens, UniProt P21397). In words: Selectivity interaction (Panel of non-epigenetic targets (kinases, GPCRs, ion channels, and transporters, Eurofins) ) EUB0000271b MAOA. As to conditions: at 1 µM.
Data set [3] concerns the target Ribosomal protein S6 kinase alpha-5 (Homo sapiens) (UniProt O75582). Put plainly: Selectivity interaction (KinomeScan (DiscoverX)) EUB0000045b RPS6KA5. As to conditions: at 10 µM.
The target of data set [4] is Serine/threonine-protein kinase NIM1 (Homo sapiens, UniProt Q8IY84). In words: Selectivity interaction (KinomeScan (DiscoverX)) EUB0000045b NIM1K.
Data set [5] deals with Serine/threonine-protein kinase Nek4 (Homo sapiens) (UniProt P51957). Put plainly: Selectivity interaction (KinomeScan (DiscoverX)) EUB0000666a NEK4. To be noted: at 10 µM.
Data set [6] concerns the target CDK4/Cyclin D3 (Homo sapiens) (UniProt P11802+P30281). In words: (§1) Selectivity interaction (Rxn Biology Kinase assay) EUB0001632a CDK4. To be noted: at 10 µM. Type of data set: protein-complex assay.
Data set [7] has as its target Cyclin-dependent kinase 4/cyclin D1 (Homo sapiens) (UniProt P11802+P24385). The data set is described as §1. To be noted: at 10 µM. Type of data set: protein-complex assay.
The target of data set [8] is T1, Mitogen-activated protein kinase 13 (Homo sapiens) (UniProt O15264).
T1 sequence (whole entry): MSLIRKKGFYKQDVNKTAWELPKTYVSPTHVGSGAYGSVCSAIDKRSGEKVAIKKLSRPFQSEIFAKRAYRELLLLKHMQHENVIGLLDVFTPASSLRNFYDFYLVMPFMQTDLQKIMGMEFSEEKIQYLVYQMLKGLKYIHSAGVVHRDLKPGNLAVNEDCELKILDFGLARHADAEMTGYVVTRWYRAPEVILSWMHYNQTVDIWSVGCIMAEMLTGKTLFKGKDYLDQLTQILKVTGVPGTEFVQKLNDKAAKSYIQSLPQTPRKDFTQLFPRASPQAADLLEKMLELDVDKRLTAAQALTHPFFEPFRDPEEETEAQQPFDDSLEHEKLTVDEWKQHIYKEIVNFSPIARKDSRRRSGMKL
Put plainly: Selectivity interaction (SelectScreen profiling (Invitrogen)) EUB0000607a MAPK13. To be noted: at 2 µM.

Data set [9] has as its target Mitogen-activated protein kinase kinase kinase kinase 4 (Homo sapiens, UniProt O95819). In words: Selectivity interaction (KinomeScan (DiscoverX)) EUB0000229b MAP4K4. As to conditions: at 10 µM.
Data set [10] concerns the target T2, Dual specificity mitogen-activated protein kinase kinase 3 (Homo sapiens) (UniProt P46734).
T2 sequence (whole entry): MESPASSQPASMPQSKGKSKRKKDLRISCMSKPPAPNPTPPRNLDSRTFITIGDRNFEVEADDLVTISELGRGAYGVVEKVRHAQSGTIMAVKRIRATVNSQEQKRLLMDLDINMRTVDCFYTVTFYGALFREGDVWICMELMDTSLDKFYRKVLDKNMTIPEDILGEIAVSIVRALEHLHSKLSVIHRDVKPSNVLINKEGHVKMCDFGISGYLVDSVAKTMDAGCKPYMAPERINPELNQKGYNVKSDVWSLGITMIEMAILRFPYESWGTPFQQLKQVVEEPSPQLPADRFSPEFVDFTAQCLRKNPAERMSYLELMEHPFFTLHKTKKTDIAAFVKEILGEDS
In words: Selectivity interaction (KinomeScan (DiscoverX)) EUB0000595a MAP2K3. To be noted: at 10 µM.

The target of data set [11] is Serine/threonine-protein kinase 32C (Homo sapiens) (UniProt Q86UX6). In words: Selectivity interaction (KinomeScan (DiscoverX)) EUB0000595a STK32C. To be noted: at 10 µM.
Data set [12] concerns the target Mitogen-activated protein kinase 9 (Homo sapiens, UniProt P45984). In words: Selectivity interaction (Kinase panel (enzymatic assay)) EUB0000595a MAPK9.
For data set [13], the target named is T3, Serine/threonine-protein kinase 36 (Homo sapiens) (UniProt Q9NRP7).
T3 sequence (whole entry): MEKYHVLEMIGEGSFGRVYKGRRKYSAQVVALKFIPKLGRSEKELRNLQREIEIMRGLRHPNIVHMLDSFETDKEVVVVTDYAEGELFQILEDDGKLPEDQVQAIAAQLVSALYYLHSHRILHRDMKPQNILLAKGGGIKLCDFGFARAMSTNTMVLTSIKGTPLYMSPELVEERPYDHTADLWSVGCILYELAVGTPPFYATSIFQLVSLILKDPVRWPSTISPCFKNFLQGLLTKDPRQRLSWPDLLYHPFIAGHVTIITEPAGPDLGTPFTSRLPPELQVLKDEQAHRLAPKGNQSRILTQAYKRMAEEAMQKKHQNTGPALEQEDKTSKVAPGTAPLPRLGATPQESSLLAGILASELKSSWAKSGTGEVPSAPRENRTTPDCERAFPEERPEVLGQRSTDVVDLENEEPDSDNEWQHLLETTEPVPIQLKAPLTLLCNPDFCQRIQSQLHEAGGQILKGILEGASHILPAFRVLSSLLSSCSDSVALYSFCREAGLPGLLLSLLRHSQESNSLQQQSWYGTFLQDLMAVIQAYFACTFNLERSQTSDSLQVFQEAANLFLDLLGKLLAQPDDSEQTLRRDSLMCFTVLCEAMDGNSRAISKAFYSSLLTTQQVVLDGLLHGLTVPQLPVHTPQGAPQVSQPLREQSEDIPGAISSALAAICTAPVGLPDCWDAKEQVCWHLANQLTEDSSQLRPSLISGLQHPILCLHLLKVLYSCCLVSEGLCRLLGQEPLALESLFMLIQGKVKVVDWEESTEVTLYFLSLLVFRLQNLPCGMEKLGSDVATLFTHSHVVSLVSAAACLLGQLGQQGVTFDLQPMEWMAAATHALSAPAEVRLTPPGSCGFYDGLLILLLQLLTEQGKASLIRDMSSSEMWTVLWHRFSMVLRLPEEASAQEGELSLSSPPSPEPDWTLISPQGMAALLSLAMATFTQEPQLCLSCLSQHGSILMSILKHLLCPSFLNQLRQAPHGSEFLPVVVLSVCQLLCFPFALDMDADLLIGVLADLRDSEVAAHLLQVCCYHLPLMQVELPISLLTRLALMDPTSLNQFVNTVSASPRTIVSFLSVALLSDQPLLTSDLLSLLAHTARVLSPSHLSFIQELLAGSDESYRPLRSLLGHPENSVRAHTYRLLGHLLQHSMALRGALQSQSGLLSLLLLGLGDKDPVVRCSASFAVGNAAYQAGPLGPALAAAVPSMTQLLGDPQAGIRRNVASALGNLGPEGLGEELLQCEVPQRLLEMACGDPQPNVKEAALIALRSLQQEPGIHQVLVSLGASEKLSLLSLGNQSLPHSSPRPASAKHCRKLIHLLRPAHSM
Put plainly: Selectivity interaction (KinomeScan (DiscoverX)) EUB0000618a STK36. To be noted: at 10 µM.

The target of data set [14] is Casein kinase I isoform gamma-1 (Homo sapiens) (UniProt Q9HCP0). Put plainly: Selectivity interaction (KinomeScan (DiscoverX)) EUB0000618a CSNK1G1. To be noted: at 10 µM.

Some results are limits rather than exact numbers.

Sequence of Serine/threonine-protein kinase NIM1 (Q8IY84 whole entry): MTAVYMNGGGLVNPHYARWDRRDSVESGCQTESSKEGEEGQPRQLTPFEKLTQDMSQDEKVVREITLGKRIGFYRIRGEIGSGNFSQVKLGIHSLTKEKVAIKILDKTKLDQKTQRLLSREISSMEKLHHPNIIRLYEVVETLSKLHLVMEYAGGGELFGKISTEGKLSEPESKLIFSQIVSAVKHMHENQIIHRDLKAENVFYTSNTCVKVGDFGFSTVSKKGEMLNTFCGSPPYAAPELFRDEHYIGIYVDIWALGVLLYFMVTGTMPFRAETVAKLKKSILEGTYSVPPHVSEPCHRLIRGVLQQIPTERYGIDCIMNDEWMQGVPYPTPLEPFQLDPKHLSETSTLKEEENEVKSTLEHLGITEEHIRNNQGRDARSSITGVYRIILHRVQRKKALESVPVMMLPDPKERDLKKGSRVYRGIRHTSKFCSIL
Sequence of Mitogen-activated protein kinase 9 (P45984 whole entry): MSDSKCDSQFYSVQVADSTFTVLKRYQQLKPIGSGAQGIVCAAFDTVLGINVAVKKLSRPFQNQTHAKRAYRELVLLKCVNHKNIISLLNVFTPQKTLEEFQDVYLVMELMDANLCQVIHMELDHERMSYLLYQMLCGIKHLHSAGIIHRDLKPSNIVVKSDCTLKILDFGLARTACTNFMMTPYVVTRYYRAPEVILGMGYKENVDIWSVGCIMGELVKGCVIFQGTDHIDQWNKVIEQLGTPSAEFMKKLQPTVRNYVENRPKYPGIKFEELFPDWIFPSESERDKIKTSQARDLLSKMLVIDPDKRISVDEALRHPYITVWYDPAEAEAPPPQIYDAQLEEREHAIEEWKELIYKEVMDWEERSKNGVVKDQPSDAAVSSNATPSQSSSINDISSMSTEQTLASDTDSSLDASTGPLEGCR
Sequence of Serine/threonine-protein kinase Nek4 (Homo sapiens) (P51957 whole entry, looked up): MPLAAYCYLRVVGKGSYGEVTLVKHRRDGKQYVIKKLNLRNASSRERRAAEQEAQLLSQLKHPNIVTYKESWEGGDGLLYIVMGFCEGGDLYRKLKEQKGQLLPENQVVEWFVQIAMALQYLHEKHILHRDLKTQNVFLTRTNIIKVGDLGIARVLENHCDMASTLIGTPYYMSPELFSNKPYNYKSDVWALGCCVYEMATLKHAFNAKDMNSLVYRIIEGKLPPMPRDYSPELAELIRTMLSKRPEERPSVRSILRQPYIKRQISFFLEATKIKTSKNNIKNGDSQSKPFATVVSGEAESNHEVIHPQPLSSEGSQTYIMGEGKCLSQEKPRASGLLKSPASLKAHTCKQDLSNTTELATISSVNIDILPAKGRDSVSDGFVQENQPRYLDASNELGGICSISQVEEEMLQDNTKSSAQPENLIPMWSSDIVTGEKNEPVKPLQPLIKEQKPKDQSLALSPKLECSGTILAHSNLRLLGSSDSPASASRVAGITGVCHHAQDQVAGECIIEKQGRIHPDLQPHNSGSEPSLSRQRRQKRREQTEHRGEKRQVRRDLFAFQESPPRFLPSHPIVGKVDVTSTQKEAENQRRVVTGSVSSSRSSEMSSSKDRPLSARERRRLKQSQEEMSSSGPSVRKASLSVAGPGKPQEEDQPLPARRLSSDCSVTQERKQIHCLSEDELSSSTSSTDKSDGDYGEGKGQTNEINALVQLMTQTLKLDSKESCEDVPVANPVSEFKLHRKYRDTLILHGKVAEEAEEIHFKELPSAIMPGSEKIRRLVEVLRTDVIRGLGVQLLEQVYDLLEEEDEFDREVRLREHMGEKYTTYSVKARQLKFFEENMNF
Sequence of Mast/stem cell growth factor receptor Kit (P10721 whole entry): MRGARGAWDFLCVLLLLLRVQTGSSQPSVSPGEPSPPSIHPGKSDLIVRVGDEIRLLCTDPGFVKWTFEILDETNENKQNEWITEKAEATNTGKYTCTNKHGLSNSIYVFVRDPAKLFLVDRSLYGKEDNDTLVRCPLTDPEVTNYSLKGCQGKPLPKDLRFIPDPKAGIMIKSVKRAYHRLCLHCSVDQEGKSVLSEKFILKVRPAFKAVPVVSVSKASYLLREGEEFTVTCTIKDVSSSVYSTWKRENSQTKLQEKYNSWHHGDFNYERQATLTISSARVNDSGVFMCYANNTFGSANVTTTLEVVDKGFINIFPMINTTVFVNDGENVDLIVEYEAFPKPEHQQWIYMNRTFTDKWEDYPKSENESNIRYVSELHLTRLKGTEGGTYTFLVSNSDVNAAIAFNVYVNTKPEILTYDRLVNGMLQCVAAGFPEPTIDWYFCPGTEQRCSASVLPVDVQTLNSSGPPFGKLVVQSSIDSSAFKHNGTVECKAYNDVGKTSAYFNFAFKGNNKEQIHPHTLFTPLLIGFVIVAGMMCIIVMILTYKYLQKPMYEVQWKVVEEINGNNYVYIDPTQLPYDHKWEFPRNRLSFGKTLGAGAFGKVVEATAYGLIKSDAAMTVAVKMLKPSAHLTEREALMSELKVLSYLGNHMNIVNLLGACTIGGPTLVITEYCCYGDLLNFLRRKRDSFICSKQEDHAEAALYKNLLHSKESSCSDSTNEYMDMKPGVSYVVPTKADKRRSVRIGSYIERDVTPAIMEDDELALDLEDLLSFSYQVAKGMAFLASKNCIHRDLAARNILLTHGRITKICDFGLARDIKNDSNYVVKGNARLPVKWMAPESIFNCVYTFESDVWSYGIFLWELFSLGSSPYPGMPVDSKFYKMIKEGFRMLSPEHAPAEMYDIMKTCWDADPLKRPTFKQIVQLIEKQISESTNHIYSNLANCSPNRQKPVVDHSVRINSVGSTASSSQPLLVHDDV
Sequence of Amine oxidase [flavin-containing] A (P21397 whole entry): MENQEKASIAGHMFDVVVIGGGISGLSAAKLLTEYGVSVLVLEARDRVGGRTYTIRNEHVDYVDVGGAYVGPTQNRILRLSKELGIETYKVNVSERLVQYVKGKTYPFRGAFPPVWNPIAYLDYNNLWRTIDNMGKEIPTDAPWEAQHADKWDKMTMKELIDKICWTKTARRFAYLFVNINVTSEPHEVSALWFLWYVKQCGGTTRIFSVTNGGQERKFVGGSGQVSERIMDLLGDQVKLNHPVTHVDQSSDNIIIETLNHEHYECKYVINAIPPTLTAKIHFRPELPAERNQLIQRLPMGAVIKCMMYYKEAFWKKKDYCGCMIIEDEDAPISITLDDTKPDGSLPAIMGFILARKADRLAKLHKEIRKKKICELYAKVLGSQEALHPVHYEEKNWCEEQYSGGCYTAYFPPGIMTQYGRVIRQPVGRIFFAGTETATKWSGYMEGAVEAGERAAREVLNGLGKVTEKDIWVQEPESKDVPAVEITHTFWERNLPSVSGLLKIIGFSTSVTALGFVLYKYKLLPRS
Sequence of Mitogen-activated protein kinase kinase kinase kinase 4 (O95819 2-1239 limits assumed): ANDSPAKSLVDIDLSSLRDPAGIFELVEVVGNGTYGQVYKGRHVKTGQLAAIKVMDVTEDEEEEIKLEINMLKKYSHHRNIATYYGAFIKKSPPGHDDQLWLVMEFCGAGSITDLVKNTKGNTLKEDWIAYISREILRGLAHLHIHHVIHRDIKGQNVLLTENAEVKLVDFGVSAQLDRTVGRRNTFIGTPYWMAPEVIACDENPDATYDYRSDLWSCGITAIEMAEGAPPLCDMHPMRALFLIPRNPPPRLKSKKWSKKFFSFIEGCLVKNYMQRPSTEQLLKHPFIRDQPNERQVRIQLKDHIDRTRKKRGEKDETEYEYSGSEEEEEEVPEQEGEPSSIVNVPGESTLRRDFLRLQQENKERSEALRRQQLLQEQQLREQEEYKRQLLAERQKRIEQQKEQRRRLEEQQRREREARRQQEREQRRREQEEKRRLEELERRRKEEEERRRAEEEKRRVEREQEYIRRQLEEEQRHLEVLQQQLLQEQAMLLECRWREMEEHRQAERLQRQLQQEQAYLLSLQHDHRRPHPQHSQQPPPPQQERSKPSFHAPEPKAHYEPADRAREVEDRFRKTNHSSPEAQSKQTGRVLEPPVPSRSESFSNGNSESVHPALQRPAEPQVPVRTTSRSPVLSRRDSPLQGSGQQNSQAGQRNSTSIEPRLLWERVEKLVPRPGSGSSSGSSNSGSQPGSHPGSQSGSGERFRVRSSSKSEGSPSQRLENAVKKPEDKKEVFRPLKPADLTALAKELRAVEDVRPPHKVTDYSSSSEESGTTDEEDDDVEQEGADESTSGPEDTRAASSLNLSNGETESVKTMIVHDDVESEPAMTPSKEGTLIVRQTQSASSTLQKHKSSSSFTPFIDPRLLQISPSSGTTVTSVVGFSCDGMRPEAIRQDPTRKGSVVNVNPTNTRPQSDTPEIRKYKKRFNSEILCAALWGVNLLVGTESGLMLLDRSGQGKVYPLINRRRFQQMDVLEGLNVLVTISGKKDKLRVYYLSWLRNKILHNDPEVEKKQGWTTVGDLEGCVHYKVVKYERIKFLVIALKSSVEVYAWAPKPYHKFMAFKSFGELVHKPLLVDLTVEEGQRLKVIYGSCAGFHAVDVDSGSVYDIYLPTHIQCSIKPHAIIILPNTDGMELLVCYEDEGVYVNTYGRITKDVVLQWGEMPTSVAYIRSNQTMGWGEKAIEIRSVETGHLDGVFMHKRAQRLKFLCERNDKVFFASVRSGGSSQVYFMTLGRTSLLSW
Sequence of Casein kinase I isoform gamma-1 (Homo sapiens) (Q9HCP0 whole entry, looked up, canonical isoform): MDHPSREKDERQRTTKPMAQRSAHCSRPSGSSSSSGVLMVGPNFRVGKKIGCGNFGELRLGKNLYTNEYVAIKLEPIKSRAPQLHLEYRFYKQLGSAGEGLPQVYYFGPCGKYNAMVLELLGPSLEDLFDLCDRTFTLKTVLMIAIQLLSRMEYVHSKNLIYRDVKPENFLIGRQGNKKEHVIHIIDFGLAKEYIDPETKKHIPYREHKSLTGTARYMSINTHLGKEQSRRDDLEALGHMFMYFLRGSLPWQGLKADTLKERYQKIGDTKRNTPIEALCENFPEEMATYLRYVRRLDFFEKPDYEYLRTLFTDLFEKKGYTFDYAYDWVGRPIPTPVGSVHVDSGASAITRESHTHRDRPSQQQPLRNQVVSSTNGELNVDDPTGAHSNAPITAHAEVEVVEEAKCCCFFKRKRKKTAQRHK

In the case of `Cc1cc(F)c(C(=O)Nc2cccc(-c3nncn3C(C)C)n2)cc1-n1cnc(C2CC2)c1`, in [1], the % of control came to 100%. Turning to `Cc1cc(C)cc([C@@H]2c3cc(C)ccc3NC(=O)CN2C(=O)c2ccc(Br)s2)c1`, the “% of inhibition” value in [2] was 12%.

Regarding `C=CC(=O)Nc1cc(-n2c(=O)ccc3cnc4ccc(-c5ccc(NS(C)(=O)=O)cc5)cc4c32)ccc1C`, the % of control in data set [3] was found to be 80%; in data set [4] (at 1 µM), 100%; in data set [4] (at 10 µM), 100%. In the case of `O=C(NOC[C@H](O)CO)c1ccc(F)c(F)c1Nc1ccc(I)cc1F`, in data set [5], the % of control stood at 78%.

Turning to `Cn1cc(-n2cnc3c(NCc4nc5cc(Cl)c(Cl)cc5[nH]4)nc(N4CCOCC4)nc32)cn1`, the results for the % of inhibition in data set [6] and in data set [7] were 46.3% and 46.7%, respectively.

Compound `CNC(=O)Nc1ccc(-c2nc(N3CC4CCC(C3)O4)c3cnn(C4CCC5(CC4)OCCO5)c3n2)cc1` registered a % of inhibition in data set [8] of 4%.

With `COc1cc(N(C)c2ccnc3ccc(C(F)(F)F)cc23)cc(OC)c1OC`, the % binding in [9] was 86%. As usually defined, the IC50 is the concentration needed to halve the response being measured. For the compound `COCC(=O)NC/C=C/c1ccc2ncnc(Nc3ccc(Oc4ccc(C)nc4)c(C)c3)c2c1` [CP-724714], the % of control in data set [10] was 100%; in [11] it was 86%. For the same compound, the IC50 in [12] was more than 10 µM.

In the case of `O[C@H]1CC[C@H](Nc2ncc3nc(Nc4c(F)cc(F)cc4F)n([C@H]4CCOC4)c3n2)CC1`, the % of control in data set [13] was 6.5%; in data set [14], 100%.
